Experiments:
[1] = test system: MDR1; assay: MDCK-MDR1 permeability assay; assay type: in vitro ADME; settings: dog; for Papp A→B at 2 h, 3 μM: MDCK-MDR1, MDCK-MDR1 cells, apical to basolateral, 3 μM test compound, 2 hours at 37 degrees C; for efflux ratio at 2 h, 3 μM: MDCK-MDR1, Papp (basolateral to apical) divided by Papp (apical to basolateral), MDCK-MDR1 cells, read-out: Efflux ratio (ER)
Procedure: The bidirectional permeability (Apical to Basal and Basal to Apical directions) of test compounds in MDCK-MIDR1 cells were evaluated using MDCK-MIDR1 cells seeded in Solvo PreadyPort™ MIDCK 96-well plate. Once the plate was received from ReadyCell (Barcelona, Spain), it was treated as per PreadyPort™ user's manual.
For the Apical to Basolateral (A→B) permeability, 80 μL of test compound (3 μM) co-dosed with LY (Lucifer Yellow) (100 μM) in HBSS (Hank's Balanced Salt Solution) assay buffer was added to the donor side (A) while 250 μL of HBSS buffer was added to the receiver side (B). For the Basolateral to Apical (B→A) permeability, 255 μL of test compound (3 μM) in HBSS assay buffer was added to the donor side (B) while 75 μL of HBSS buffer containing LY (100 μM) was added to the receiver side (A).
The plate was placed in an incubator set at 37 degrees C. After 10 minutes of pre-warming, 5 μL aliquot was taken from donor compartment and set aside as the dosing solution. The MDCK-MDR1 incubation plate was placed back into the incubator for 2 hours of incubation at 37 degrees C. After 2 hours of incubation, 25 μL and 5 μL aliquots were removed from the receiver and donor sides, respectively. To the 5 μL aliquots taken from the donor sides (before and after a 2-hour incubation) were diluted with 20 μL of the HBSS buffer. All samples were mixed with 150 μL with acetonitrile containing internal standard (IS) and 200 μL water, and analyzed by LC-MS/MS.
The apparent permeability (Papp) was calculated using the following formula: Papp=dQ/dt×1/A×C0 where: • dQ/dt: amount of translocated material over incubation time (nmol/s) • A: area of insert (0.14 cm^2 for PreadyPort™ MDR1-96) • C0: initial concentration of product applied in apical (A→B) or basal (B→A) compartment (nmol/mL)
The efflux ratio (ER) was measured by dividing the Papp (basolateral to apical direction) by Papp (apical to basolateral direction). It is a general measure of the involvement of active processes. An ER>2 is considered positive for active transport.
The data reported in Table 3 were obtained according to the MDCK-MIDR1 permeability assay described above.

[2] = test system: human hepatocytes; assay: Hepatocytes stability assay (human hepatocytes); assay type: in vitro ADME; settings: scaled hepatic clearance divided by liver blood flow, fu assumed unity
Procedure: (§1) In vitro metabolic stability was assessed using cryopreserved hepatocytes from male Sprague Dawley rats and a pool of 50 mixed gender humans (BioIVT, Baltimore, MD). The incubation mixtures were prepared by mixing 250 μL of pre-warmed KHB (Krebs-Henseleit buffer) containing 2×10^6 cell/mL of hepatocytes with 250 μL of pre-warmed KHB buffer containing 2 μM of test compounds in a 48-well plate, giving a final concentration of 1 μM test compound (0.1% DMSO) and 1×10^6 cell/mL of hepatocytes. The reaction mixture was incubated at 37 degrees C. A 50 μL aliquot of incubation mixture was taken at time points (0, 15, 30, 60, 120 and 240 minutes) and transferred into a 96-well plate containing 300 μL ice-cold acetonitrile (containing 30 ng/mL of labetalol and 10 ng/mL of Naltrexone-d3 as internal standards) and immediately placed in ice to terminate the reaction. Samples were centrifuged, and supernatants were transferred into 96-well plates for liquid chromatography with tandem mass spectrometry (LC-MS/MS) analysis to monitor the depletion of the test compound.
(§2) Data was calculated as percent remaining by assuming zero-minute time point peak area ratio (analyte/IS) as 100% and dividing remaining time point peak area ratios by zero-minute time point peak area ratio. Data were fitted to a first-order decay model to determine half-life. From a plot of log (ln) peak area against time, the slope of the line was determined. Subsequently, half-life (T1/2) and intrinsic clearance (CLint) were calculated using the equations below: Elimination rate constant (k)=(−slope) Half-life (T1/2)min=0.693/k Intrinsic Clearance (CLint) (mL/min/million cells)=(V×0.693)/T1/2 V=incubation volume mL/number of cells The in vitro T1/2 was converted to in vitro intrinsic clearance (CLint,hep) in units of mL/min/kg using the formula shown below:
(§3) [formula] The in vitro intrinsic clearance (CLint,hep) was scaled to in vivo hepatic clearance (CL,hep) using the following equation which was adapted from a well-stirred model.
(§4) [formula] where Q is the liver blood flow and fu is the fraction unbound (assumed to be unity in this case). All parameters used in the calculation are shown below (Table 4).
(§5) The extraction ratio (ER) was calculated by dividing the hepatic clearance of a compound to the liver blood flow. The data reported in Table 5 were obtained according to the human hepatocytes stability assay described above.

[3] = Hepatocytes stability assay (human hepatocytes); assay type: in vitro ADME; settings: both sexes, cryopreserved hepatocytes, 1 μM test compound, 1×10^6 cell/mL, 37 degrees C, read-out: CLint (μL/min/million cells)
Procedure: as §1, §2, §3, §4, §5

[4] = target: T1, human orexin-2 receptor (OX2R) (Homo sapiens, UniProt O43614); assay: Human OX2R IP1 assay; assay type: cell-based; settings: T-Rex CHO cells stably overexpressing human OX2R, IP1 accumulation, 1 hr at 37 degrees C; mean EC50; ∧ = racemic mixture
T1 construct: expressed in transfected cells
T1 sequence (O43614 1-444): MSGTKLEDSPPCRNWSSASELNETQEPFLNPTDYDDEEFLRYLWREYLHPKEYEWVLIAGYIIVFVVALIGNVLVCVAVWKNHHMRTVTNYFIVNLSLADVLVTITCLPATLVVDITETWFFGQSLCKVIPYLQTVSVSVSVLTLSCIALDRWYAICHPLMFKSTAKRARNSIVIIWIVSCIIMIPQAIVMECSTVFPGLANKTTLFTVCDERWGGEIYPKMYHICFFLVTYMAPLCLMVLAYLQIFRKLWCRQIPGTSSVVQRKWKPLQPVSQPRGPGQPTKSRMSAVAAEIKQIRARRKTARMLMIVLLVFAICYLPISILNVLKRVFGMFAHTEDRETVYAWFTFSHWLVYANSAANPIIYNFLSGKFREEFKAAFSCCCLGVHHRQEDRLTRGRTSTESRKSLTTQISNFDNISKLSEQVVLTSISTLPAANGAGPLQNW
Procedure: T-Rex CHO cells stably overexpressing the human orexin-2 receptor (OX2R) were induced overnight with 1 μg/mL of doxycycline in a T225 flask. 24 hours post induction, cells were lifted with accutase and plated into a 384-well proxy plate at 30,000 cells/well. Cells were then treated with different test compounds in 1× stimulation buffer containing 10 mM Hepes, 1 mM CaCl2), 0.5 mM MgCl2, 4.2 mM KCl, 146 mM NaCl, 5.5 mM glucose, and 50 mM LiCl, pH 7.4, for 1 hr at 37 degrees C. Following incubation, the reaction was terminated by the addition of detection mix, which is composed of IP1-d2 and anti-IP1-cryptate diluted in lysis buffer as well as 1× stimulation buffer. The plates were allowed to incubate for 1 hour at room temperature and were then read in the EnVision® multimode plate reader, measuring inositol phosphate levels.
Cisbio IP1 is a cell-based functional assay quantifying the accumulation of inositol monophosphate (IP), a metabolite released as a result of orexin 2 receptor activation through the phospholipase C-Gq signaling pathway. This is a competitive immunoassay in which the IP1 produced by the cells upon receptor activation competes with the IP1 analog coupled to the d2 fluorophore (acceptor) for binding to an anti-IP1 monoclonal antibody labeled with Eu cryptate (donor). The measured HTRF-FRET based signal is inversely proportional to the IP1 concentration produced.
The EC50 values reported in Table 2 were obtained according to the human OX2R IP1 assay described above. Data are the mean EC50 values ±S.E.M. The compound methyl (2R,3S)-3-((methylsulfonyl)amino)-2-(((cis-4-phenylcyclohexyl)oxy)methyl)-piperidine-1-carboxylate is a reference compound which is disclosed in Example 5 of PCT publication no. WO2017/135306.

| SMILES | Papp A→B at 2 h, 3 μM [1] | efflux ratio at 2 h, 3 μM [1] | Extraction Ratio (ER) [2] | hepatocyte CLint at 1 μM [3] | EC50 [4] |
| --- | --- | --- | --- | --- | --- |
| CS(=O)(=O)N[C@H]1CCCN2C(=O)CCOc3ccccc3C3CCC(CC3)OCC12 (stereo partly drawn) [Compound 1] | 0.15 ×10⁻⁶ cm/s | > 100 | 0.67 | 14 µL/min/1e6 cells | – |
| CS(=O)(=O)N[C@H]1CCCN2C(=O)CCCCOc3ccccc3C3CCC(CC3)OCC12 (stereo partly drawn) [Compound 3] | 0.8 ×10⁻⁶ cm/s | 34 | 0.87 | 43 µL/min/1e6 cells | – |
| CS(=O)(=O)N[C@H]1CCCN2C(=O)CCCOc3ccccc3C3CCC(CC3)OCC12 (stereo partly drawn) [Compound 4] | 0.47 ×10⁻⁶ cm/s | 97 | 0.81 | 28 µL/min/1e6 cells | – |
| CS(=O)(=O)N[C@H]1CCCN2CCCOc3ccccc3C3CCC(CC3)OCC12 (stereo partly drawn) [Compound 5] | – | – | 0.90 | 63 µL/min/1e6 cells | – |
| CS(=O)(=O)N[C@H]1CCCN2CCOc3ccccc3C3CCC(CC3)OCC12 (stereo partly drawn) [Compound 6] | 21 ×10⁻⁶ cm/s | 0.66 | 0.87 | 45 µL/min/1e6 cells | – |
| CS(=O)(=O)N[C@H]1CCCN2C(=O)CCc3ccccc3C3CCC(CC3)OCC12 (stereo partly drawn) [Compound 10] | 0.29 ×10⁻⁶ cm/s | 15 | 0.55 | 8.3 µL/min/1e6 cells | – |
| CS(=O)(=O)N[C@H]1CCCN2C(=O)COc3c(F)cccc3C3CCC(CC3)OCC12 (stereo partly drawn) [Compound 11] | 2.2 ×10⁻⁶ cm/s | 5.5 | 0.83 | 33 µL/min/1e6 cells | – |
| CS(=O)(=O)N[C@H]1CCCN2CCOc3c(F)cccc3C3CCC(CC3)OCC12 (stereo partly drawn) [Compound 13] | 26 ×10⁻⁶ cm/s | 0.55 | 0.88 | 47 µL/min/1e6 cells | – |
| CS(=O)(=O)N[C@H]1CCN2C(=O)COc3ncccc3C3CCC(CC3)OCC12 (stereo partly drawn) [Compound 18] | 3.9 ×10⁻⁶ cm/s | 2 | 0.77 | 23 µL/min/1e6 cells | – |
| CC1(C)Oc2ccccc2C2CCC(CC2)OCC2[C@@H](NS(C)(=O)=O)CCCN2C1=O (stereo partly drawn) [Compound 36] | 2 ×10⁻⁶ cm/s | 9.5 | 0.91 | 66 µL/min/1e6 cells | – |
| CS(=O)(=O)N[C@H]1CCN2CCOc3ccccc3C3CCC(CC3)OCC12 (stereo partly drawn) [Compound 39] | 24 ×10⁻⁶ cm/s | 0.49 | 0.88 | 47 µL/min/1e6 cells | – |
| CS(=O)(=O)N[C@H]1CCCN2C(=O)C(F)(F)Oc3ccccc3C3CCC(CC3)OCC12 (stereo partly drawn) [Compound 40] | 3.6 ×10⁻⁶ cm/s | 5.1 | 0.91 | 65 µL/min/1e6 cells | – |
| CS(=O)(=O)N[C@H]1CCCN2CC(F)(F)Oc3ccccc3C3CCC(CC3)OCC12 (stereo partly drawn) [Compound 41] | – | – | 0.90 | 60 µL/min/1e6 cells | – |
| CS(=O)(=O)N[C@H]1CCN2C(=O)COc3c(F)cccc3C3CCC(CC3)OCC12 (stereo partly drawn) [Compound 42] | 11 ×10⁻⁶ cm/s | 1.3 | 0.89 | 52 µL/min/1e6 cells | – |
| CS(=O)(=O)N[C@H]1CCN2C(=O)COc3c(F)cc(F)cc3C3CCC(CC3)OCC12 (stereo partly drawn) [Compound 43] | 12 ×10⁻⁶ cm/s | 1.1 | 0.83 | 34 µL/min/1e6 cells | – |
| CS(=O)(=O)N[C@H]1CCCN2CC(F)(F)Oc3c(F)cc(F)cc3[C@H]3CC[C@H](CC3)OC[C@@H]12 [Compound 59] | – | – | – | – | 100 to 1000 nM |
| CS(=O)(=O)N[C@H]1CCCN2CCOc3ccc(Cl)cc3[C@H]3CC[C@H](CC3)OC[C@@H]12 [Compound 61] | – | – | – | – | > 1000 nM |
| CS(=O)(=O)N[C@H]1CCCN2C(=O)COc3ncc(F)cc3[C@H]3CC[C@H](CC3)OC[C@@H]12 [Compound 64] | – | – | – | – | < 100 nM |
| CS(=O)(=O)N[C@H]1CCCN2CCOc3ncccc3[C@H]3CC[C@H](CC3)OC[C@@H]12 [Compound 65] | – | – | – | – | 100 to 1000 nM |
